# Experimental data: patent publication US10508086B2 (CANCER RESEARCH TECHNOLOGY LIMITED, priority 2014, dated 2019)
# Columns and labels:
# Human Full Length PARG = Human Full Length PARG (Homo sapiens (Human), UniProt Q86W56); assay: PARG in vitro enzyme assay (TR-FRET); type: biochemical; settings: read-out: PARG_EC50_ENZYME
# In short: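 Full-length human PARG ([…]) incubated with ribosylated PARP substrate (4.5 nM) for 10 min at room temperature in Tris pH 7.4 buffer with EDTA, EGTA, DTT, KCl. Detection by TR-FRET using anti-6HIS XL665 (14 nM final) and streptavidin europium cryptate (0.75 nM final) after 60 min; Em665/Em620 ratio converted to percent inhibition.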
# PARG in HeLa cell line = PARG in HeLa cell line (Homo sapiens (Human), UniProt Q86W56); assay: PARG cell assay (nuclear PAR chains after MMS, immunofluorescence); type: cell-based; settings: HeLa cells, MMS 50 μg/mL; read-out: PARG Cell IC50 Geomean
# PARG in HeLa cell line, sequence (Q86W56 whole entry): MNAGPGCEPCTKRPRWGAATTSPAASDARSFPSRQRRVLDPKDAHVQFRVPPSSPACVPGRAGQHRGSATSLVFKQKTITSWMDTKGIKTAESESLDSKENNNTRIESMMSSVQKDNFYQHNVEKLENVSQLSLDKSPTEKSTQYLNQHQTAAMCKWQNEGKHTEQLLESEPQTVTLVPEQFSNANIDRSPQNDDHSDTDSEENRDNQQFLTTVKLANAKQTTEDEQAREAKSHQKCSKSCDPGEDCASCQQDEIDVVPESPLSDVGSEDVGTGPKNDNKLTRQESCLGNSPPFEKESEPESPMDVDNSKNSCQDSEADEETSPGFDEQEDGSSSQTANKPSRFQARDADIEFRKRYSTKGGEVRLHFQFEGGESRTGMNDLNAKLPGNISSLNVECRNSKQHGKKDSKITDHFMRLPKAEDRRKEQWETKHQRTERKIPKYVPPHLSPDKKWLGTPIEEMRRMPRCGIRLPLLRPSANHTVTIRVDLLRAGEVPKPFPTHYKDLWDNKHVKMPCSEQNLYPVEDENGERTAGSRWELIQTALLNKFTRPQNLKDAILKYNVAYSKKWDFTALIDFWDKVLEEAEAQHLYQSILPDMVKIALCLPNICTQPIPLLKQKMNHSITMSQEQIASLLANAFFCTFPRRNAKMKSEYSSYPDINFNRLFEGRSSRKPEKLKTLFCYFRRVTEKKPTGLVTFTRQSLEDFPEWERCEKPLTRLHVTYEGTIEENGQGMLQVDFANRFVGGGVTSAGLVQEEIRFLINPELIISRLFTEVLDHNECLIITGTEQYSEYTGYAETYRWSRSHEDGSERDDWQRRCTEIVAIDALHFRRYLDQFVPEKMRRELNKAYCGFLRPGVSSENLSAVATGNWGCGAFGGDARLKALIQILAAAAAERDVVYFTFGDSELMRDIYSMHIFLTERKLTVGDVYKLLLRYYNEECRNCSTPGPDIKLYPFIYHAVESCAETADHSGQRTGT
# Description: This method is based on the detection of endogenous levels of poly (ADP) ribose chains present in the nucleus of HeLa cell line using indirect immunofluorescence. MMS stimulation increases PAR chains for up to 25 mins. After that point, PARG is active and breaks down the PAR chains, until by one hour after stimulation no PAR chains are detectable. Inhibition of PARG maintains PAR chains.
# Briefly, following compound treatment and treatment with the DNA damaging agent methylmethanesulfonate (MMS), the cell monolayer is fixed, then permeabilised and incubated with a mouse monoclonal antibody raised against multimers of poly(ADP) ribose. After an overnight incubation, excess antibody is removed by washing and an Alexafluor 488-linked secondary antibody which recognises the mouse monoclonal is added together with a nuclear stain (Hoechst 33342). Images of the cells are then captured and analysed on a High Content Screening platform and the total intensity of the nuclear fluorescent signal at […] is quantified.
# HeLa cells, seeded in 384-well plates, at 4000/well in 30 μL RPMI 1640 media, supplemented with 10% FBS and 2 mM Glutamax, were incubated overnight at 37° C., 5% CO2.
# The following day, cells were dosed in quadruplicate with compound (10 point dose response) and incubated for 1 h at 37° C., 5% CO2.
# At the end of the 1 h dosing period, MMS was added to duplicates at a final concentration of 50 μg/mL, for a further hour.
# Media was tipped off and the cells fixed with 50 μL ice-cold 95% MetOH/PBS for 15 mins at −20° C. Following a PBS wash, 50 μL PBS/0.1% Triton was added to the cells for 20 mins. Following another PBS wash, anti-PAR antibody (Calbiochem AM80) was diluted 1:4000 in a buffer (PBS+0.5% FBS+0.05% Tween20) and added to the cells and incubated overnight at 4° C.
# The following day, cells were washed three times with PBS and then incubated for 1 hr with secondary antibody (Alexa Fluor® 488 goat anti mouse IgG (H+L)) diluted 1:1000 and Hoechst diluted 1:5000 in buffer (5% FBS in PBS+0.05% Tween20).
# Cells were washed three times with PBS and the plate sealed with a light-proof seal.
# Images of the cells were captured on a ThermoFisher Celllnsight and the mean total intensity of spots fluorescent at 485 nm in the nucleus was reported.
# Human Full Length PARG, sequence (Q86W56 whole entry): as above
Structure (SMILES),EC50 (Human Full Length PARG) [nM],IC50 (PARG in HeLa cell line) [nM]
"Cc1cc(Cn2c(=O)n(-c3nnc(C(F)F)s3)c3cc(S(=O)(=O)NC4(C#N)CC4)ccc32)n(C)n1 [Example 165, N-(1-Cyanocyclopropyl)-3-[5-(difluoromethyl)-1,3,4-thiadiazol-2-yl]-1-[(2,5-dimethylpyrazol-3-yl)methyl]-2-oxo-benzimidazole-5-sulfonamide]",234,127
"Cc1nnc(-n2c(=O)n(CC#N)c3ccc(S(=O)(=O)NC4(C)CC4)cc32)s1 [Example 166, 1-(Cyanomethyl)-N-(1-methylcyclopropyl)-3-(5-methyl-1,3,4-thiadiazol-2-yl)-2-oxo-benzimidazole-5-sulfonamide]",784,291
"COCCn1c(=O)n(-c2nnc(C(F)F)s2)c2cc(S(=O)(=O)NC3(CF)CC3)c(F)cc21 [Example 167, 3-[5-(Difluoromethyl)-1,3,4-thiadiazol-2-yl]-6-fluoro-N-[1-(fluoromethyl)cyclopropyl]-1-(2-methoxyethyl)-2-oxo-benzimidazole-5-sulfonamide]",74,46
"COCCn1c(=O)n(-c2nnc(C(F)F)s2)c2cc(S(=O)(=O)NC3(C)CC3)c(F)cc21 [Example 168, 3-[5-(Difluoromethyl)-1,3,4-thiadiazol-2-yl]-6-fluoro-1-(2-methoxyethyl)-N-(1-methylcyclopropyl)-2-oxo-benzimidazole-5-sulfonamide]",99,32
"COCCn1c(=O)n(-c2nnc(C(F)F)s2)c2cc(S(=O)(=O)NC3(C)CC3)ccc21 [Example 169, 3-[5-(Difluoromethyl)-1,3,4-thiadiazol-2-yl]-1-(2-methoxyethyl)-N-(1-methylcyclopropyl)-2-oxo-benzimidazole-5-sulfonamide]",355,36
"CN(C)CCCn1c(=O)n(-c2nnc(C(F)F)s2)c2cc(S(=O)(=O)NC3(CF)CC3)ccc21 [Example 170, 3-[5-(Difluoromethyl)-1,3,4-thiadiazol-2-yl]-1-[3-(dimethylamino)propyl]-N-[1-(fluoromethyl)cyclopropyl]-2-oxo-benzimidazole-5-sulfonamide]",92,89
"Cc1nsc(-n2c(=O)n(C)c3cc(F)c(S(=O)(=O)NC4(C)CC4)cc32)n1 [Example 171, 6-Fluoro-1-methyl-N-(1-methylcyclopropyl)-3-(3-methyl-1,2,4-thiadiazol-5-yl)-2-oxo-benzimidazole-5-sulfonamide]",7110,1550
"Cc1nsc(-n2c(=O)n(C)c3cc(F)c(S(=O)(=O)NC4(CF)CC4)cc32)n1 [Example 172, 6-Fluoro-N-[1-(fluoromethyl)cyclopropyl]-1-methyl-3-(3-methyl-1,2,4-thiadiazol-5-yl)-2-oxo-benzimidazole-5-sulfonamide]",12000,2090
"Cn1c(=O)n(-c2nnc(C(F)F)s2)c2cc(S(=O)(=O)NC3(C)CC3)c(F)cc21 [Example 173, 3-[5-(Difluoromethyl)-1,3,4-thiadiazol-2-yl]-6-fluoro-1-methyl-N-(1-methylcyclopropyl)-2-oxo-benzimidazole-5-sulfonamide]",141,64
"Cn1c(=O)n(-c2ncns2)c2cc(S(=O)(=O)NC3(CF)CC3)ccc21 [Example 175, N-[1-(Fluoromethyl)cyclopropyl]-1-methyl-2-oxo-3-(1,2,4-thiadiazol-5-yl)benzimidazole-5-sulfonamide]",250,551
"Cc1nsc(-n2c(=O)n(C)c3ccc(S(=O)(=O)NC4(C)CC4)cc32)n1 [Example 176, 1-Methyl-N-(1-methylcyclopropyl)-3-(3-methyl-1,2,4-thiadiazol-5-yl)-2-oxo-benzimidazole-5-sulfonamide]",6020,1790
"Cc1nnc(-n2c(=O)n(CC#N)c3ccc(S(=O)(=O)NC4(CF)CC4)cc32)s1 [Example 178, 1-(Cyanomethyl)-N-[1-(fluoromethyl)cyclopropyl]-3-(5-methyl-1,3,4-thiadiazol-2-yl)-2-oxo-benzimidazole-5-sulfonamide]",682,903
"Cc1nsc(-n2c(=O)n(CC#N)c3ccc(S(=O)(=O)NC4(C)CC4)cc32)n1 [Example 179, 1-(Cyanomethyl)-N-(1-methylcyclopropyl)-3-(3-methyl-1,2,4-thiadiazol-5-yl)-2-oxo-benzimidazole-5-sulfonamide]",1150,1160
"Cc1nsc(-n2c(=O)n(CC#N)c3ccc(S(=O)(=O)NC4(CF)CC4)cc32)n1 [Example 180, 1-(Cyanomethyl)-N-[1-(fluoromethyl)cyclopropyl]-3-(3-methyl-1,2,4-thiadiazol-5-yl)-2-oxo-benzimidazole-5-sulfonamide]",1130,1930
"Cn1c(=O)n(-c2nnc(C(F)F)s2)c2cc(S(=O)(=O)NC3(CF)CC3)ccc21 [Example 181, 3-[5-(Difluoromethyl)-1,3,4-thiadiazol-2-yl]-N-[1-(fluoromethyl)cyclopropyl]-1-methyl-2-oxo-benzimidazole-5-sulfonamide]",291,109
"COCCn1c(=O)n(-c2nc(C)ns2)c2cc(S(=O)(=O)NC3(C)CC3)ccc21 [Example 182, 1-(2-Methoxyethyl)-N-(1-methylcyclopropyl)-3-(3-methyl-1,2,4-thiadiazol-5-yl)-2-oxo-benzimidazole-5-sulfonamide]",309,537
"COCCn1c(=O)n(-c2ncns2)c2cc(S(=O)(=O)NC3(CF)CC3)ccc21 [Example 183, N-[1-(Fluoromethyl)cyclopropyl]-1-(2-methoxyethyl)-2-oxo-3-(1,2,4-thiadiazol-5-yl)benzimidazole-5-sulfonamide]",549,376
"COCCn1c(=O)n(-c2nc(C)ns2)c2cc(S(=O)(=O)NC3(CF)CC3)ccc21 [Example 184, N-[1-(Fluoromethyl)cyclopropyl]-1-(2-methoxyethyl)-3-(3-methyl-1,2,4-thiadiazol-5-yl)-2-oxo-benzimidazole-5-sulfonamide]",1390,701
"COCCCn1c(=O)n(-c2nc(C)ns2)c2cc(S(=O)(=O)NC3(CF)CC3)ccc21 [Example 185, N-[1-(Fluoromethyl)cyclopropyl]-1-(3-methoxypropyl)-3-(3-methyl-1,2,4-thiadiazol-5-yl)-2-oxo-benzimidazole-5-sulfonamide]",3780,740
"Cc1nsc(-n2c(=O)n(CCN(C)C)c3ccc(S(=O)(=O)NC4(CF)CC4)cc32)n1 [Example 186, 1-[2-(Dimethylamino)ethyl]-N-[1-(fluoromethyl)cyclopropyl]-3-(3-methyl-1,2,4-thiadiazol-5-yl)-2-oxo-benzimidazole-5-sulfonamide]",4230,3120
"COCCCn1c(=O)n(-c2nnc(C)s2)c2cc(S(=O)(=O)NC3(CF)CC3)ccc21 [Example 187, N-[1-(Fluoromethyl)cyclopropyl]-1-(3-methoxypropyl)-3-(5-methyl-1,3,4-thiadiazol-2-yl)-2-oxo-benzimidazole-5-sulfonamide]",427,201
"Cc1nnc(-n2c(=O)n(CCN(C)C)c3ccc(S(=O)(=O)NC4(CF)CC4)cc32)s1 [Example 188, 1-[2-(Dimethylamino)ethyl]-N-[1-(fluoromethyl)cyclopropyl]-3-(5-methyl-1,3,4-thiadiazol-2-yl)-2-oxo-benzimidazole-5-sulfonamide]",610,347
"Cc1nnc(-n2c(=O)n(C)c3ccc(S(=O)(=O)NC4(C)CC4)cc32)o1 [Example 189, 1-Methyl-N-(1-methylcyclopropyl)-3-(5-methyl-1,3,4-oxadiazol-2-yl)-2-oxo-benzimidazole-5-sulfonamide]",1790,1230
"CCn1c(=O)n(-c2nnc(C)o2)c2cc(S(=O)(=O)NC3(C)CC3)ccc21 [Example 190, 1-Ethyl-N-(1-methylcyclopropyl)-3-(5-methyl-1,3,4-oxadiazol-2-yl)-2-oxo-benzimidazole-5-sulfonamide]",934,404
"Cc1nnc(-n2c(=O)n(CCF)c3ccc(S(=O)(=O)NC4(C)CC4)cc32)o1 [Example 191, 1-(2-Fluoroethyl)-N-(1-methylcyclopropyl)-3-(5-methyl-1,3,4-oxadiazol-2-yl)-2-oxo-benzimidazole-5-sulfonamide]",967,807
